# Patent publication US11980209B2, “Consumables” (GIVAUDAN SA, priority 2007, dated 2024)
# How the values were obtained:
# [1] = system: perceived sweetness (sweet sensitive panelists); test: Ranking test with R-index, sweetness enhancement by 10 ppm HDG in 7% sucrose (Example 12); type: in vivo, human; settings: for R-index: critical value 37.1 to 62.9%
# Procedure: The degree of sweetness enhancement of HDG was tested by determining the isointensity of the HDG-enhanced samples in comparison to sucrose samples. The samples contained 10 ppm HDG in 7% sucrose (HDG-10), and various sucrose solutions of different concentration in water (7%, 8%, 9%, and 10%).
# 15 ml of each sample was presented at room temperature and in random order to 20 sweet sensitive panelists. In two replications over 1 session, panelists were asked to compare and rank the samples from least sweet to most sweet. The critical value indicates the range wherein the difference of two samples is non-significant.
# [2] = system: perceived sweet taste (sweet sensitive panelists); test: Ranking test with R-index, isointensity of 15 and 20 ppm HDG in water (Example 1d); type: in vivo, human; settings: for R-index: critical values 37.26-62.74%
# Procedure: All examples were performed with sweet sensitive panelists able to detect at least 0.5% of sucrose or less, unless stated otherwise. The concentration detectable by the average consumer will be higher. The results were obtained using 20 panelists in two replications.
# The sucrose concentration that tastes isointense in sweetness to HDG was determined using samples of 15 ppm and 20 ppm, each of which was directly compared to a sucrose sample (sucrose solutions of 0.5%, 1%, 1.5% and 2% concentration). Fifteen milliliters of each blinded sample was presented, at room temperature, in random order to 20 sweet sensitive panelists. In two replications (over 1 session), panelists were asked to rank the solutions, from least sweet to most sweet. The data was subjected to an R-index analysis.
# [3] = system: perceived sweet taste (panel); test: Small panel ranking of 5-20 ppm HDG in water (Example 1d); type: in vivo, human; settings: for Rank and taste: rank from least sweet to most sweet
# Procedure: Further three small panel testings were performed. HDG samples were prepared in concentrations of 5 ppm, 10 ppm, 15 ppm, and 20 ppm in water. All the samples were coded (presented blind) and given to the panel in random order. The panel was also presented with sucrose solutions for comparison. The panel was asked to taste each sample and rank the samples from the least sweet to most sweet.
# [4] = system: perceived sweet taste (sweet sensitive panelists); test: Ranking test with R-index, isointensity of 20 ppm HDG in 7% sucrose (Example 2b); type: in vivo, human; settings: for R-index: critical values 37.11-62.89%
# Source text: Panels consisted of 20 sweet sensitive subjects and samples were presented in 2 replications over 1 session. Panelists were presented with 7%, 8%, 9% and 10% sucrose solutions in water and a fifth sample of 20 ppm HDG in 7% sucrose in random order. Subjects were asked to rank the samples from low to high with respect to perceived sweet taste.
# [5] = system: perceived sweetness (panelists); test: Sweetness of HDG in a cola beverage (Example 14); type: in vivo, human; settings: 20 ppm HDG in cola beverage sweetened with 7% sucrose
# Source text: 20 ppm of HDG in a cola beverage sweetened with 7% sucrose was compared to control samples (cola without HDG and sweetened with 7 or 9% sucrose) by 9 panelists.
# Panelists were instructed to taste and compare the samples in their sweetness intensity and profile.
# [6] = system: perceived sweet taste (sweet sensitive panelists); test: Ranking test of 2 ppm NHDC in water (Example 7); type: in vivo, human
# [7] = system: sucrose sweetness; settings: NHDC at its sweetness detection threshold; Kroeze et al., Chem. Senses 2000; cited from earlier work
# [8] = system: perceived sweetness (sweet sensitive panelists); test: Determined isointensities to sucrose solutions of the optional enhancers; type: in vivo, human
# Procedure: The sweetness detection threshold for trilobatin, HDG and optional enhancers were determined by the applicant.
# The sweetness detection threshold varies somewhat in different individuals. For example, some individuals are able to detect the sweetness of sucrose in a very low concentration of 0.4%, others need at least 0.7%, or at least 1% or even more. All examples were performed with sweet sensitive panelists able to detect at least 0.5% of sucrose or less. The concentration detectable by the average consumer will therefore be higher.
# [9] = system: perceived sweetness (sweet sensitive panelists); test: Sweetness rating on generalized labeled magnitude scale (Example 6); type: in vivo, human; settings: 1% sucrose in water, test run 3
# Source text: Further, panelists were asked to rate each presented sample for sweetness using the generalized labeled magnitude scale (0=no sweetness; […] of any kind). The rating data was compared using the paired t-test.
# [10] = 10 ppm HDG in 7% sucrose vs 7% sucrose
# [11] = 10 ppm HDG in 7% sucrose vs 8% sucrose
# [12] = 10 ppm HDG in 7% sucrose vs 9% sucrose
# [13] = 10 ppm HDG in 7% sucrose vs 10% sucrose
compound,measurement,setting,value
"COc1ccc(CCC(=O)c2c(O)cc(O[C@@H]3O[C@H](CO)[C@@H](O)[C@H](O)[C@H]3O)cc2O)cc1O [HDG, 1-[4-(-D-glucopyranosyloxy)-2,6-dihydroxyphenyl]-3-(3-hydroxy-4-methoxyphenyl)-1-propanone]",added sucrose sweetness intensity,[1]; 10 ppm HDG in 7% sucrose,about 1 ° Brix
same,expected isointensity to sucrose assuming a merely additive effect,[1]; 10 ppm HDG in 7% sucrose,7.5%
same,isointensity to sucrose,[1]; 10 ppm HDG in 7% sucrose,8 % sucrose
same,sweetness HDG sample,[1]; [10],sweeter
same,R-index,[1]; [10],75.2%
same,sweetness HDG sample,[1]; [11],isosweet
same,R-index,[1]; [11],37.5%
same,sweetness HDG sample,[1]; [12],less
same,R-index,[1]; [12],10.7%
same,sweetness HDG sample,[1]; [13],less
same,R-index,[1]; [13],0.6%
same,R-index,[2]; 15 ppm HDG in water vs 0.5% sucrose,85%
same,R-index,[2]; 15 ppm HDG in water vs 1.0% sucrose,31%
same,R-index,[2]; 15 ppm HDG in water vs 1.5% sucrose,10%
same,R-index,[2]; 15 ppm HDG in water vs 2.0% sucrose,1%
same,"sample sweetness (HDG, 15 ppm)",[2]; 15 ppm in water vs 0.5% sucrose solution,sweeter
same,"sample sweetness (HDG, 15 ppm)",[2]; 15 ppm in water vs 1.0% sucrose solution,less sweet
same,"sample sweetness (HDG, 15 ppm)",[2]; 15 ppm in water vs 1.5% sucrose solution,less sweet
same,"sample sweetness (HDG, 15 ppm)",[2]; 15 ppm in water vs 2.0% sucrose solution,less sweet
same,R-index,[2]; 20 ppm HDG in water vs 0.5% sucrose,92%
same,R-index,[2]; 20 ppm HDG in water vs 1.0% sucrose,51%
same,R-index,[2]; 20 ppm HDG in water vs 1.5% sucrose,33%
same,R-index,[2]; 20 ppm HDG in water vs 2.0% sucrose,4%
same,"sample sweetness (HDG, 20 ppm)",[2]; 20 ppm in water vs 0.5% sucrose solution,Sweeter
same,"sample sweetness (HDG, 20 ppm)",[2]; 20 ppm in water vs 1.0% sucrose solution,Isosweet
same,"sample sweetness (HDG, 20 ppm)",[2]; 20 ppm in water vs 1.5% sucrose solution,Less sweet
same,"sample sweetness (HDG, 20 ppm)",[2]; 20 ppm in water vs 2.0% sucrose solution,Less sweet
same,isointensity to sucrose,[3]; 5 ppm HDG in water,0% sucrose (water)
same,Rank and taste,[3]; 5 ppm HDG in water,1 - not sweet
same,Rank and taste,[3]; 10 ppm HDG in water,2 - very slightly sweet
same,Rank and taste,[3]; 15 ppm HDG in water,3 - slightly sweet
same,isointensity to sucrose,[3]; 20 ppm HDG in water,1 % sucrose
same,Rank and taste,[3]; 20 ppm HDG in water,4 - sweet
same,sweetness threshold of HDG detected by sweet sensitive individuals,[3]; in water,about 10 ppm
same,added sucrose sweetness intensity,[4]; 20 ppm HDG in 7% sucrose,1.5-2 ° Brix
same,R-index,[4]; 20 ppm HDG in 7% sucrose vs 7% sucrose,94.8%
same,R-index,[4]; 20 ppm HDG in 7% sucrose vs 8% sucrose,62.6%
same,R-index,[4]; 20 ppm HDG in 7% sucrose vs 9% sucrose,46.0%
same,R-index,[4]; 20 ppm HDG in 7% sucrose vs 10% sucrose,6.8%
same,sample sweetness (7% sucrose + 20 ppm HDG),[4]; vs 7% sucrose solution,Sweeter
same,sample sweetness (7% sucrose + 20 ppm HDG),[4]; vs 8% sucrose solution,Isosweet
same,sample sweetness (7% sucrose + 20 ppm HDG),[4]; vs 9% sucrose solution,Isosweet
same,sample sweetness (7% sucrose + 20 ppm HDG),[4]; vs 10% sucrose solution,Less sweet
same,sweetness compared to 9% sucrose cola control,[5],not as sweet
same,sweetness compared to 7% sucrose cola control,[5]; all 9 panelists,significantly sweeter
same,taste profile,[5]; similar to the sucrose controls in sweetness onset and duration,non-lingering
"COc1ccc(CCC(=O)c2c(O)cc(O[C@@H]3O[C@H](CO)[C@@H](O)[C@H](O)[C@H]3O[C@@H]3O[C@@H](C)[C@H](O)[C@@H](O)[C@H]3O)cc2O)cc1O [NHDC, Neohesperidin dihydrochalcone]",isointensity to sucrose,[6]; 2 ppm NHDC in water,0.5 % sucrose
same,NHDC sample sweetness,[6]; 2 ppm NHDC in water vs 0.5% sucrose solution,isosweet
same,NHDC sample sweetness,[6]; 2 ppm NHDC in water vs 1% sucrose solution,less sweet
same,R-index,"[6]; 2 ppm NHDC in water vs 1% sucrose, critical values 35.39-64.61%",5%
same,enhancement of sucrose sweetness,[7],does not enhance sucrose sweetness
"C[C@@H]1O[C@@H](O[C@H]2[C@H](Oc3cc(O)c(C(=O)CCc4ccc(O)cc4)c(O)c3)O[C@H](CO)[C@@H](O)[C@@H]2O)[C@H](O)[C@H](O)[C@H]1O [naringin dihydrochalcone, 1-[4-[[2-O-(6-Deoxy-alpha-L-mannopyranosyl)-beta-D-glucopyranosyl]oxy]-2,6-dihydroxyphenyl]-3-(4-hydroxyphenyl)-1-propanone]",isointensity to sucrose,[8]; 45 ppm naringin dihydrochalcone,0.5 % sucrose
same,isointensity to sucrose,[8]; 60 ppm naringin dihydrochalcone,1.25 % sucrose
"C=C1C[C@@]23CC[C@H]4[C@@](C)(CCC[C@@]4(C)C(=O)O[C@@H]4O[C@H](CO)[C@@H](O)[C@H](O)[C@H]4O)[C@@H]2CC[C@]1(O[C@@H]1O[C@H](CO)[C@@H](O)[C@H](O[C@@H]2O[C@H](CO)[C@@H](O)[C@H](O)[C@H]2O)[C@H]1O[C@@H]1O[C@H](CO)[C@@H](O)[C@H](O)[C@H]1O)C3 [rebaudioside A, Rebaudioside A]",isointensity to sucrose,[8]; 20 ppm rebaudioside A,0.75 % sucrose
"C=C1C[C@@]23CC[C@H]4[C@@](C)(CCC[C@@]4(C)C(=O)O[C@@H]4O[C@H](CO)[C@@H](O)[C@H](O)[C@H]4O)[C@@H]2CC[C@]1(O[C@@H]1O[C@H](CO)[C@@H](O)[C@H](O)[C@H]1O[C@@H]1O[C@H](CO)[C@@H](O)[C@H](O)[C@H]1O)C3 [stevioside, Stevioside]",isointensity to sucrose,[8]; 30 ppm stevioside,0.5 % sucrose
same,isointensity to sucrose,[8]; 40 ppm stevioside,0.75 % sucrose
"OC[C@H]1O[C@@](CO)(O[C@H]2O[C@H](CO)[C@@H](O)[C@H](O)[C@H]2O)[C@@H](O)[C@@H]1O [sucrose, alpha-D-glucopyranosyl-(1→2)-beta-D-fructofuranose]","sweetness rating, generalized labeled magnitude scale (0=no sweetness; 10=strongest imaginable sensation)",[9],0.72 ± 0.06
